Calls of active or inactive are those of the source.
How the values were obtained:
[1] = molecular target: T1, Histone-lysine N-methyltransferase NSD2 (Homo sapiens, UniProt O96028); type: biochemical
T1 sequence (O96028 whole entry): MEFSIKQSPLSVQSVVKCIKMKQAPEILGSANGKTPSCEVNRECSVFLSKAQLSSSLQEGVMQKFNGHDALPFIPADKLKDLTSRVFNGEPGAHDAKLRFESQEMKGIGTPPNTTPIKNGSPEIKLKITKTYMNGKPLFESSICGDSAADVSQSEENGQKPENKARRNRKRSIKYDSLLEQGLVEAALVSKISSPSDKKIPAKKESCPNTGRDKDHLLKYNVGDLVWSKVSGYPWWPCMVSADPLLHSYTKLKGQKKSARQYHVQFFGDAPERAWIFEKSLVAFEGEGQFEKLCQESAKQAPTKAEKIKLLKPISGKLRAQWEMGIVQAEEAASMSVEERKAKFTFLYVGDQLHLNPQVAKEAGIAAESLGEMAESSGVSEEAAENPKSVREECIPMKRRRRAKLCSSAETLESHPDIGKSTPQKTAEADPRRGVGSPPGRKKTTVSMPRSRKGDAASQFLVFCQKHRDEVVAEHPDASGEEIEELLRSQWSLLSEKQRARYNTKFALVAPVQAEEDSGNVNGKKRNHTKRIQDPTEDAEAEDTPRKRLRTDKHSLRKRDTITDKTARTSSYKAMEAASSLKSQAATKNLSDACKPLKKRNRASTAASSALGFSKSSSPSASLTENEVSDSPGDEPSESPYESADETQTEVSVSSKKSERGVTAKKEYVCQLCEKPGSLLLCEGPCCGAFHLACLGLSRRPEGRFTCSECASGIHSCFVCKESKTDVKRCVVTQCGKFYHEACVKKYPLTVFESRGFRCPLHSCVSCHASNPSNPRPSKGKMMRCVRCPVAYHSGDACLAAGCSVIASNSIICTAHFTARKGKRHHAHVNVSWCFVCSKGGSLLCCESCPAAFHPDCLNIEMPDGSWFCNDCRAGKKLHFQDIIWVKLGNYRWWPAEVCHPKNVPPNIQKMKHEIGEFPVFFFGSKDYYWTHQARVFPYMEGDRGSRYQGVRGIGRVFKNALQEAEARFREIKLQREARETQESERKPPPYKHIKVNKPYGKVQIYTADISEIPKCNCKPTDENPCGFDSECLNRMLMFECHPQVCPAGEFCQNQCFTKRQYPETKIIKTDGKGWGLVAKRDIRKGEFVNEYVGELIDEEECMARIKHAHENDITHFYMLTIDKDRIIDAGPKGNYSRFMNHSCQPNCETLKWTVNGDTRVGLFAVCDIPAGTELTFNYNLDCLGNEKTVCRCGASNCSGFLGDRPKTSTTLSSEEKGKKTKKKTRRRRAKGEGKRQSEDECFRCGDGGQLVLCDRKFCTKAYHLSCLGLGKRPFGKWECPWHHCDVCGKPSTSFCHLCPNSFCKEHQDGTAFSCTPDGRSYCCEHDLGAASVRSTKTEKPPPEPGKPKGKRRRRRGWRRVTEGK

[2] = molecular target: T2, Tyrosyl-DNA phosphodiesterase 2 (Homo sapiens, UniProt O95551); assay: human TDP2 enzyme inhibitors, dose response, biochemical, epi absorbance, IC50 (AID 743297)
T2 sequence (O95551 whole entry): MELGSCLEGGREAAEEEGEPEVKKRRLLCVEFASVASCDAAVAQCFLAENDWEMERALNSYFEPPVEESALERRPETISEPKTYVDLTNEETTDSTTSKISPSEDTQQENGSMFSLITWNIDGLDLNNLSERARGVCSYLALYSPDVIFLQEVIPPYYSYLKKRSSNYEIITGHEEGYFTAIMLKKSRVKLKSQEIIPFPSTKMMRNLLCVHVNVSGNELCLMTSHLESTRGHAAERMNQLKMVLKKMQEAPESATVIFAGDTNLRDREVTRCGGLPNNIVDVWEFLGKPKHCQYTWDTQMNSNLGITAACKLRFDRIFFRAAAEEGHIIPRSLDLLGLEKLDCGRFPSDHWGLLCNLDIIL

[3] = molecular target: T3, Apoptotic protease-activating factor 1 (Homo sapiens, UniProt O14727); type: functional
T3 sequence (O14727 whole entry): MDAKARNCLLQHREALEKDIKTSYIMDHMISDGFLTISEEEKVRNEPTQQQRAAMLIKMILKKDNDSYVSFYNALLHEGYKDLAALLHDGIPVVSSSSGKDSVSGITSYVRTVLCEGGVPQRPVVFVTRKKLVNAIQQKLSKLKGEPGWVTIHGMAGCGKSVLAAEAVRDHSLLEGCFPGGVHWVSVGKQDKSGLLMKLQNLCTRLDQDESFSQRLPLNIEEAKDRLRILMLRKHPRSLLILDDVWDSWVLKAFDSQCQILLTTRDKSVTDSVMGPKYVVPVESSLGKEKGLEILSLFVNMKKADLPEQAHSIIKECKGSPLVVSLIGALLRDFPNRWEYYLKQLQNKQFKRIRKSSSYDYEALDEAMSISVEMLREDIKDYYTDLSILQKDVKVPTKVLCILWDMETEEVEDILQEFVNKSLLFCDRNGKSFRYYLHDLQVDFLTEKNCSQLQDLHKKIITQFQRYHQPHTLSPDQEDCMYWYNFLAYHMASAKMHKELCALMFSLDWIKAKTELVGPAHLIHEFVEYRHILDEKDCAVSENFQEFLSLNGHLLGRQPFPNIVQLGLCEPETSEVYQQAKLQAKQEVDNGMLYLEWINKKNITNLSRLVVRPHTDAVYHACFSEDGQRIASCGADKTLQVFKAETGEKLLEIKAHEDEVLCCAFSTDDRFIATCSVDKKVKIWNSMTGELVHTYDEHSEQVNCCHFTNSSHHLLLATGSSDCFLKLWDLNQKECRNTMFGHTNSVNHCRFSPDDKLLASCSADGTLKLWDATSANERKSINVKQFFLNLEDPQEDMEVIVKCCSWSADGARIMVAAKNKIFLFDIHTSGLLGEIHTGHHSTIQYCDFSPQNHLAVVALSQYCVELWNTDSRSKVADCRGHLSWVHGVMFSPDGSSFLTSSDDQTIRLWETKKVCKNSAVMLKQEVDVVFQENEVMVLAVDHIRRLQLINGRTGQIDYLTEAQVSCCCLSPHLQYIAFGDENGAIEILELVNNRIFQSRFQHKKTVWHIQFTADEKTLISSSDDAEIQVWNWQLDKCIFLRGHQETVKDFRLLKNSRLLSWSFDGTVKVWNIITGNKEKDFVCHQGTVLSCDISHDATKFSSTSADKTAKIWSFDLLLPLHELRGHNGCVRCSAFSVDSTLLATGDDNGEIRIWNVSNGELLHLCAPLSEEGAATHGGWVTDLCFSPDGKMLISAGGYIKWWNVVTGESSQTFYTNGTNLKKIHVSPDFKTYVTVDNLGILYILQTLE

CC(=O)N(C1=C(Cl)C(=O)c2ccccc2C1=O)c1ccc(C(=O)O)cc1
active: AC50 [1] 3.29 µM | IC50 [2] 9.4 µM | IC50 [3] 2.92 µM

CC1(C)C=C2C(=NN(c3ccccc3)C(N)=C2C#N)CO1
active: AC50 [1] 5.67 µM | IC50 [2] 1.27 µM | IC50 [3] 1.38 µM

From ChEMBL document CHEMBL1201862, “PubChem BioAssay data set” (2004)
